The values that follow are results of earlier work, collected in US6803034B2, “Compositions and methods for odor and fungal control in ballistic fabric and other protective garments” (Procter & Gamble Company, priority 2000, dated 2004).

Consider `[H]/N=C(\N/C(=N/[H])NCCCCCCNC(=N)NC(=N)Nc1ccc(Cl)cc1)Nc1ccc(Cl)cc1` [chlorhexidine diacetate, 1,1′-hexamethylene bis(5-(p-chlorophenyl)biguanide)], for which the solubility in water result is “about 1.8%”.
Consider `[H]/N=C(\N/C(=N/[H])NCCCCCCNC(=N)NC(=N)Nc1ccc(Cl)cc1)Nc1ccc(Cl)cc1` [chlorhexidine digluconate, 1,1′-hexamethylene bis(5-(p-chlorophenyl)biguanide)], for which the solubility in water entry is given as “about 70%”.
